Measured values as given in ChEMBL document CHEMBL3351889, “Identification of a novel 2-pyridyl-benzensulfonamide derivative, RQ-00203078, as a selective and orally active TRPM8 antagonist” (Bioorg Med Chem Lett, 2014).
In brackets after ≈: the same amount, converted by molar mass.

Key:
[1] = biological target: Transient receptor potential cation channel subfamily M member 8 (Homo sapiens, UniProt Q7Z2W7); test: Antagonist activity at human TRPM8 expressed in HEK293 cells assessed as inhibition of menthol induced Ca2+ influx; format: cell-based
Chain of Transient receptor potential cation channel subfamily M member 8 (Homo sapiens, UniProt Q7Z2W7) (Q7Z2W7 whole entry): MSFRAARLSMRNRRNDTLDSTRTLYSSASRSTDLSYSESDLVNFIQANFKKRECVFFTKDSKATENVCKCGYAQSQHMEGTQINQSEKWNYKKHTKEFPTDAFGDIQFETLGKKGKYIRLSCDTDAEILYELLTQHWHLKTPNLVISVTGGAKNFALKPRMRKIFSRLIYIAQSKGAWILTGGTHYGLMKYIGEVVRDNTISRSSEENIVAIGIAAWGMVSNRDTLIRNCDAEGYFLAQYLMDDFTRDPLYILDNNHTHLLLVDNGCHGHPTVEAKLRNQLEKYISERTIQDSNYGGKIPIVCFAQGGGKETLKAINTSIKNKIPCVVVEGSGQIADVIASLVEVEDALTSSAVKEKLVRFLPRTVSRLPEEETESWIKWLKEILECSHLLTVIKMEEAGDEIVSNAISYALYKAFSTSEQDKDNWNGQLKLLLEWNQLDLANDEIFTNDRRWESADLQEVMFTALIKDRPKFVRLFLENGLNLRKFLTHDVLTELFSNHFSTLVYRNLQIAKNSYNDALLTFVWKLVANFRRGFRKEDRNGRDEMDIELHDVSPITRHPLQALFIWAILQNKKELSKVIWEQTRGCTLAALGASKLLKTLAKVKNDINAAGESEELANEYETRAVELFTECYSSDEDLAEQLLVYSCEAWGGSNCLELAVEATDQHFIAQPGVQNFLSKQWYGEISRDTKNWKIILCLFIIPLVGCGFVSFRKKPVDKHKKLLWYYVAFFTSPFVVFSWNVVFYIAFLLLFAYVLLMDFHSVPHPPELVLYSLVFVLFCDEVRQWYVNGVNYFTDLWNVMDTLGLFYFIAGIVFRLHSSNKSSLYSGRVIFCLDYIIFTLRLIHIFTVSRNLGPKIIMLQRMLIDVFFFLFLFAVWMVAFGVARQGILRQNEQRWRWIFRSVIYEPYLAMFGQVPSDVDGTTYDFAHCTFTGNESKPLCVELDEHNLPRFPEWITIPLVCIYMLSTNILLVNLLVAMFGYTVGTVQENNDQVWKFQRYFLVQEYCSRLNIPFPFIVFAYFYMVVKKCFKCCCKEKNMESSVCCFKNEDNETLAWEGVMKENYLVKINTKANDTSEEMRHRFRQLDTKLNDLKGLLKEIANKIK

[2] = Intrinsic clearance in rat liver microsomes; format: ADME; details: read-out: CLH
[3] = Fraction unbound in rat plasma; format: ADME, cell-free
Rattus norvegicus = test: Antiallodynic activity in icilin-induced wet-dog shake rat model compound administered po 1 hr prior to icilin challenge measured over 30 mins; format: functional
[4] = Intrinsic clearance in human liver microsomes; format: ADME; details: read-out: CLH
[5] = biological target: Transient receptor potential cation channel subfamily M member 8 (Rattus norvegicus, UniProt Q8R455); test: Antagonist activity at rat TRPM8 assessed as inhibition of menthol induced Ca2+ influx by cell-based assay
Chain of Transient receptor potential cation channel subfamily M member 8 (Rattus norvegicus, UniProt Q8R455) (Q8R455 whole entry): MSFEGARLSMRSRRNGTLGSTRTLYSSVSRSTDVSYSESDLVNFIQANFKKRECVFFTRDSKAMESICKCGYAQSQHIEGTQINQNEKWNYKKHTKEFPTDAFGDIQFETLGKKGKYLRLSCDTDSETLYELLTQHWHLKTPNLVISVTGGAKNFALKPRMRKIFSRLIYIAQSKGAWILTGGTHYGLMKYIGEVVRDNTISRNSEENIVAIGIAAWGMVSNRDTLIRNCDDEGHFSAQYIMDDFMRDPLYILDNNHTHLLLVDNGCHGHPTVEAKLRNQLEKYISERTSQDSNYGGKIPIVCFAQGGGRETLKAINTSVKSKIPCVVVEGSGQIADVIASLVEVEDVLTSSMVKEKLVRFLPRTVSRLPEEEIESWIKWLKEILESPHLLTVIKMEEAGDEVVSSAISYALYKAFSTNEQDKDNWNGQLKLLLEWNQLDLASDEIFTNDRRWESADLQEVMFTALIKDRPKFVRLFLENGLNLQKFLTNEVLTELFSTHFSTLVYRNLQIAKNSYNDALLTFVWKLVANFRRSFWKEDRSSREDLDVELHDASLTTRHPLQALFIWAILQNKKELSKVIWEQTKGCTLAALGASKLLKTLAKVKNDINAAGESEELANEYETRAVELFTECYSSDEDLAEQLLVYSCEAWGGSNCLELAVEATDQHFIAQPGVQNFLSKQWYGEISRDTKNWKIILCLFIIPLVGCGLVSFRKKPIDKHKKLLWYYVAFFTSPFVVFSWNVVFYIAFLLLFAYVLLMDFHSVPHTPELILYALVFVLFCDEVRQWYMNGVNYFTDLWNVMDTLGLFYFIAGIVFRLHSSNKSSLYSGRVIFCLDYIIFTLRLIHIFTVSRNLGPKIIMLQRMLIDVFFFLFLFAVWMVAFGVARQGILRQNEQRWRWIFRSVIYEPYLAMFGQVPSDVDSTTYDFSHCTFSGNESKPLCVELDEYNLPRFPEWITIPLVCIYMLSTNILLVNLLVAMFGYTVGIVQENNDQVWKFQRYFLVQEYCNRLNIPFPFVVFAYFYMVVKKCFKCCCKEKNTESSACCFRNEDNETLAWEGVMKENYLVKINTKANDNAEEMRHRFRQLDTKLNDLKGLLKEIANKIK

[6] = Equilibrium solubility of the compound; format: physicochemical
[7] = biological target: Transient receptor potential cation channel subfamily V member 4 (Homo sapiens, UniProt Q9HBA0); test: Antagonist activity at human TRPV4 expressed in HEK293 cells assessed as inhibition of hypotonic solution-induced Ca2+ influx; format: cell-based
Chain of Transient receptor potential cation channel subfamily V member 4 (Q9HBA0 whole entry): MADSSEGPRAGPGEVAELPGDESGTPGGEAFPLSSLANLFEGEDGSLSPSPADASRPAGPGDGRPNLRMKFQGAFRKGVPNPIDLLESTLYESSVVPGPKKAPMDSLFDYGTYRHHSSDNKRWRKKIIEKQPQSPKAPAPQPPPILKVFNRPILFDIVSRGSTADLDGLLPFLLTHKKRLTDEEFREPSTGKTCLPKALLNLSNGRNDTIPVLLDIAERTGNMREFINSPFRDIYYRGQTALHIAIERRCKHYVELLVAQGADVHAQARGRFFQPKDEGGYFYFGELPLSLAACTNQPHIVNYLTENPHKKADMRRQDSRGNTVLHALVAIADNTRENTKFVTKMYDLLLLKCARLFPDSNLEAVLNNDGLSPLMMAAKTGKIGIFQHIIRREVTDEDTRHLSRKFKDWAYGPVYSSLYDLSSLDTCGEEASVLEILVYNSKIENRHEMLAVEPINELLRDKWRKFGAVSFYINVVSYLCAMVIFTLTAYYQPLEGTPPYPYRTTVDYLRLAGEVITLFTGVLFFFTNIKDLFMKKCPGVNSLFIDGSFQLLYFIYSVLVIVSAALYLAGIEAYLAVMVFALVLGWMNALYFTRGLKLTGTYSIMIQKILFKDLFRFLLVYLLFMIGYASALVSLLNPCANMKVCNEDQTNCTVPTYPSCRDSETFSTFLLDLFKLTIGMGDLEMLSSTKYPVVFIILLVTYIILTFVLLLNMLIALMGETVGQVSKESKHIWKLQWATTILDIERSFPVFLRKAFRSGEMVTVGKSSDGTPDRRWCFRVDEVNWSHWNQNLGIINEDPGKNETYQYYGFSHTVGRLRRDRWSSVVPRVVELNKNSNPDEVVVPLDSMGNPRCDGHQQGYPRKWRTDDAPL

[8] = Oral bioavailability in rat at 3 mg/kg; format: ADME, organism-based; details: in vivo
[9] = biological target: Transient receptor potential cation channel subfamily V member 1 (Homo sapiens, UniProt Q8NER1); test: Antagonist activity at human TRPV1 expressed in HEK293 cells assessed as inhibition of capsaicin-induced Ca2+ influx; format: cell-based
Chain of Transient receptor potential cation channel subfamily V member 1 (Homo sapiens, UniProt Q8NER1) (Q8NER1 whole entry, looked up): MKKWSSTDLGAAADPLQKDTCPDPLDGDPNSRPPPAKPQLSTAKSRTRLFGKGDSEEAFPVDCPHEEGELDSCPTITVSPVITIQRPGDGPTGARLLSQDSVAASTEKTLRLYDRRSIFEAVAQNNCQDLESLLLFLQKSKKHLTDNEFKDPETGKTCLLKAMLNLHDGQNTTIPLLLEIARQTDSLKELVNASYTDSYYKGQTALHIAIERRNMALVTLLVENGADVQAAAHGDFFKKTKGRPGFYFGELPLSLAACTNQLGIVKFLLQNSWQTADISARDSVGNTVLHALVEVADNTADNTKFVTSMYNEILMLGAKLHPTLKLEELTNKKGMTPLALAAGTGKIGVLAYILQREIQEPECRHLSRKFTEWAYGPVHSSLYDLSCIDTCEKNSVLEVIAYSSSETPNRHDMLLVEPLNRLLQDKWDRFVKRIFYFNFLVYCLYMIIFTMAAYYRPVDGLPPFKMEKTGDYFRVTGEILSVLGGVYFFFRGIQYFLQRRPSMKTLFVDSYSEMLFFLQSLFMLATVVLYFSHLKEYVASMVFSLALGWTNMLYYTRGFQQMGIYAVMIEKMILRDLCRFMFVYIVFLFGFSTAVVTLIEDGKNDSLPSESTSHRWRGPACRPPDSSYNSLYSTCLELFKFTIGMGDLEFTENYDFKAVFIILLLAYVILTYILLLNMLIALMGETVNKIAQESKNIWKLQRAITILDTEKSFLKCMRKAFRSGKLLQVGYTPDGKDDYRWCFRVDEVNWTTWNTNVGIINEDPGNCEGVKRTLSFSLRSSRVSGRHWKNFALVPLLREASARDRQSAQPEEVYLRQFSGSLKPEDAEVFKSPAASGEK

[10] = biological target: Transient receptor potential cation channel subfamily V member 1 (Rattus norvegicus, UniProt O35433); test: Antagonist activity at rat TRPV1 expressed in HEK293 cells assessed as inhibition of capsaicin-induced Ca2+ influx; format: cell-based
[11] = Cmax in rat at 3 mg/kg, po; format: ADME, organism-based; set-up: dose 3 mg/kg, route oral; details: in vivo
[12] = biological target: Transient receptor potential cation channel subfamily A member 1 (Homo sapiens, UniProt O75762); test: Antagonist activity at human TRPA1 expressed in HEK293 cells assessed as inhibition of AITC-induced Ca2+ influx; format: cell-based
[13] = biological target: Transient receptor potential cation channel subfamily A member 1 (Rattus norvegicus, UniProt Q6RI86); test: Antagonist activity at rat TRPA1 expressed in HEK293 cells assessed as inhibition of AITC-induced Ca2+ influx; format: cell-based
Chain of Transient receptor potential cation channel subfamily A member 1 (Rattus norvegicus, UniProt Q6RI86) (Q6RI86 whole entry): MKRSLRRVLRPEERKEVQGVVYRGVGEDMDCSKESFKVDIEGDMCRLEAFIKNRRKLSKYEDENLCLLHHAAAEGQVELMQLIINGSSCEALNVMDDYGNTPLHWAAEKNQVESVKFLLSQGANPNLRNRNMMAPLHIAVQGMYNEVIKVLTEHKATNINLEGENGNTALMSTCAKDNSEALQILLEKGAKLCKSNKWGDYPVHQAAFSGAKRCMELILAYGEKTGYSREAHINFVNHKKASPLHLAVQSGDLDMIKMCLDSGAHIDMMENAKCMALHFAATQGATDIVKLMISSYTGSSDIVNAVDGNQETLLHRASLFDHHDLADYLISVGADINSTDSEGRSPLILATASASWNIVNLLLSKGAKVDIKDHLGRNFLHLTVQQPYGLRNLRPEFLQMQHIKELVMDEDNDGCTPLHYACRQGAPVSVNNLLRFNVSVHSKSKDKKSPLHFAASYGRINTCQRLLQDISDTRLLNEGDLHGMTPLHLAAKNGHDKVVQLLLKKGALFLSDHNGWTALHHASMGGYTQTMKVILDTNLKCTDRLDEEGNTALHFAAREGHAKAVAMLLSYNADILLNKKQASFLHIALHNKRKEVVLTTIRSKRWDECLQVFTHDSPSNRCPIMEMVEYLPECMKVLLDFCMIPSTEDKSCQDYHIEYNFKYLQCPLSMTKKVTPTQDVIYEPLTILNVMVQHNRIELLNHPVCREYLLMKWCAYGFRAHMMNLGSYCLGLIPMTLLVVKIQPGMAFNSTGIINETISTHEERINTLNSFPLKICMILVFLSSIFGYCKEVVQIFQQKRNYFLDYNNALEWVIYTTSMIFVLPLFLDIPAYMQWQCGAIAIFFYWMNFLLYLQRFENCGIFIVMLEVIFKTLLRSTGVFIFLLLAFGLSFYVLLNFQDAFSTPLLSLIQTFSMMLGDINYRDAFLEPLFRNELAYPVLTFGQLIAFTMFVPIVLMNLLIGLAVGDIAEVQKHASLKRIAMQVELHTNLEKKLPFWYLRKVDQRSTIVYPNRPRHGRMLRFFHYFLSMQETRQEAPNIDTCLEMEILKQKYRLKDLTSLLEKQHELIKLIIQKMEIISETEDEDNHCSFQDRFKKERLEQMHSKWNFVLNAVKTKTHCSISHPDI

Row | SMILES | IC50 [1] [nM] | CLint scaled [4] [mL/min/kg] | also measured
1 | O=C(O)c1ccc(S(=O)(=O)N(CCc2ccccc2)c2ncc(C(F)(F)F)cc2Cl)cc1 | 762 |  | 
2 | Cc1cc(C(F)(F)F)cnc1N(Cc1ccccc1)S(=O)(=O)c1ccc(C(=O)O)cc1 | 736 |  | 
3 | N#Cc1cc(C(F)(F)F)cnc1N(Cc1ccccc1)S(=O)(=O)c1ccc(C(=O)O)cc1 | 2470 |  | 
4 | O=C(O)c1ccc(S(=O)(=O)N(CCN2CCOCC2)c2ncc(C(F)(F)F)cc2Cl)cc1 | 3720 | < 7 | 
5 | O=C(O)c1ccc(S(=O)(=O)N(Cc2ccccc2OC(F)(F)F)c2ncc(C(F)(F)F)cc2Cl)cc1 | 96 | < 7 | 
6 | CN(C)C(=O)c1ccc(S(=O)(=O)N(Cc2ccccc2)c2ncc(C(F)(F)F)cc2Cl)cc1 | 67 | > 168 | solubility thermodynamic [6]: 37 µM (≈ 18.4 µg/mL)
7 | O=C(O)c1ccc(S(=O)(=O)N(Cc2ccccc2)c2ncccc2Cl)cc1 | 9860 |  | 

Stronger by IC50 [1], values ahead:

Row | IC50 [1] [nM] | CLint scaled [4] [mL/min/kg] | SMILES | also measured
8 | 11 | < 7 | O=C(O)c1ccc(S(=O)(=O)N(Cc2ccc(C(F)(F)F)cc2)c2ncc(Cl)cc2Cl)cc1 | CLint scaled [2]: < 10.4 mL/min/kg; fraction unbound [3]: 0.011; ED50 (Rattus norvegicus): 1.3 mg/kg; IC50 [5]: 9 nM
9 | 61 | < 7 | O=C(O)c1ccc(S(=O)(=O)N(Cc2ccccc2)c2ncc(C(F)(F)F)cc2Cl)cc1 | solubility thermodynamic [6]: 185 µM (≈ 87.1 µg/mL)
10 | 42 | > 168 | O=S(=O)(c1ccc(CO)cc1)N(Cc1ccccc1)c1ncc(C(F)(F)F)cc1Cl | solubility thermodynamic [6]: 35 µM (≈ 16 µg/mL)
11 | 8.3 | < 7 | O=C(O)c1ccc(S(=O)(=O)N(Cc2ccc(OC(F)(F)F)cc2)c2ncc(C(F)(F)F)cc2Cl)cc1 | IC50 [7]: > 3000 nM; bioavailability [8]: 86%; CLint scaled [2]: < 10.4 mL/min/kg; fraction unbound [3]: 0.0031; IC50 [9]: > 10000 nM; IC50 [10]: > 3000 nM; Cmax [11]: 2300 ng/mL; ED50 (Rattus norvegicus): 0.65 mg/kg; IC50 [5]: 5.8 nM; IC50 [12]: > 10000 nM; IC50 [13]: > 10000 nM
12 | 49 | 81 | O=C(O)c1ccc(S(=O)(=O)N(CCCc2ccccc2)c2ncc(C(F)(F)F)cc2Cl)cc1 | 
13 | 41 | < 7 | O=C(O)c1ccc(S(=O)(=O)N(Cc2cccc(C(F)(F)F)c2)c2ncc(C(F)(F)F)cc2Cl)cc1 | 
14 | 6.2 | 8.5 | Cc1c(N(Cc2ccc(C(F)(F)F)c(F)c2)S(=O)(=O)c2ccc(C(=O)O)cc2)sc2ccccc12 | 
